How the values were obtained:
ND6 mRNA = assay: Real-time PCR of mitochondria-encoded mRNA levels in SN4741 cells; type: cell-based, mouse; settings: SN4741 cells; relatively short exposure to toxicant
Description: (§1) (A) Mitochondria-targeting MEF2D (Mt2D) and mitochondria-targeting dominant-negative MEF2D (Mt2Ddn), which lacks the transactivation domain (TAD). […] Control indicates the control vector group. (C) Effects of Mt2D or Mt2Ddn on ND6 expression in SN4741 cells. Over-expression of Mt2Ddn in SN4741 cells reduced ND6 but not PPAR-γ coactivator 1 (PGC1) expression by western blotting (n=4, **p<0.01). Control indicates the control vector group. (D) Effects of over-expression of Mt2D or Mt2Ddn on mRNA levels of mitochondria encoded genes. […] Control indicates the control vector group. (E) Effects of Mt2D or Mt2Ddn on mtDNA L-strand transcription initiation in vitro (n=3; **P<0.01). A human mtDNA fragment containing mitochondrial L-strand promoter (LSP) and ND6 gene was used in the in vitro transcription assay. […] (F) Effects of Mt2D or Mt2Ddn on mtDNA de novo transcription in vivo (n=3; **P<0.01). Control (−) is without primers. Control (+) indicates the control vector group.

SN4741 cells [1] = assay: Immunocytochemistry, colocalization of MEF2D with MitoTracker; type: cell-based, mouse; settings: SN4741 cells and primary midbrain dopamine neurons; toxicant treatment
Experimental: (§2) (A) Reduced binding of MEF2D to ND6 after neurotoxin treatment. SN4741 cells were treated with MPP+ (25 μM) or rotenone (Rot, 100 nM) for 12 hours. […] Control indicates untreated. […] Control indicates untreated. (C) Immunocytochemical analysis of mitochondrial MEF2D after MPP+ and rotenone treatment. SN4741 cells treated as described in (A) were stained (scale bar, 10 μm). […] Experiments were repeated four times. Control indicates untreated. […] SN4741 cells were treated with MPP+ after infection with the control, Mt2Ddn or Mt2DVP16 or MtND6 lentiviruses for 24 hours (upper graph: different doses of MPP+ for 24 hours; lower graph: 5 μM of MPP+ for different times). Cell viability was measured by WST-1 assay (n=4; *p<0.05; **P<0.01). Control indicates the control vector group.
SN4741 cells or primary midbrain DA neurons were plated on glass slides in 24-well plates. Localizations of endogenous and exogenous MEF2D were visualized on a Zeiss LSM5 PASCAL confocal microscope. To visualize colocalization of MEF2D with the mitochondria, cells were stained with MitoTracker (Invitrogen) and anti-MEF2D (BD Bioscience) or anti-FLAG (Sigma) antibodies. Quantification of colocalization of signals was done using “Colocalization Analysis” program of software Image Pro (Media Cybernetics). Overlap coefficients of 50 cells in each group were collected. […]

MEF2D and ND6 proteins = assay: Western blotting of MEF2D, ND6 and PGC1 protein levels in SN4741 cells; type: cell-based, mouse; settings: for level of ND6 protein / level of mitochondrial MEF2D protein / level of MEF2D in the nucleus / level of MEF2D in whole cell: SN4741 cells; for level of ND6 protein / level of mitochondrial MEF2D protein: purified mitochondria, MPP+ 25 μM or rotenone 100 nM for 12 hours; for level of MEF2D in the nucleus / level of MEF2D in whole cell: same toxicant condition
Description: as §1, §2
(§3) (A) Diagrams of Mt2DVP16 and MtND6. Mt2DVP16 was constructed by fusion of transactivation domain (TAD) of VP16 with DNA-binding domain of MEF2D and a mitochondria-targeting sequence (Mito). […] (C) Over-expression of Mt2DVP16 attenuated MEF2D siRNA-induced reduction of ND6 expression (n=3, **P<0.01).

MEF2D binding to ND6 = assay: ChIP assay of MEF2D binding to the ND6 MEF2 site in purified mitochondria; type: cell-based, mouse; settings: for binding of mitochondrial MEF2D to the ND6 MEF2 site: SN4741 cells, MPP+ 25 μM or rotenone 100 nM for 12 hours
Description: as §1, §2
Andres et al., J Biol Chem, 1995, 270:23246-23249. Moreover, this putative MEF2 binding site is conserved among several species. To test whether MEF2D binds to this putative MEF2 site, electronic mobility shift assay (EMSA) was performed. N-terminal MEF2D formed a complex with the labeled probe containing the ND6 MEF2 site. […] To corroborate this finding, a chromatin immunoprecipitation (ChIP) assay was carried out using highly purified mitochondria. […] ND6 but not ND2 based primers could amplify the bound sequence (FIG. 3C). Sequence analysis of the DNA bound by MEF2D after amplification confirmed the presence of the ND6 MEF2 site (FIG. 3D).

SN4741 cells [2] = assay: WST-1 cell viability assay; type: cell-based, mouse; settings: SN4741 cells; different doses of MPP+ for 24 hours
Experimental: as §2
WST-1 assay was done using a kit (cat. no. 11644807001) from Roche and following procedures provided by the manufacturer. WST-1 (4-[3-(4-Iodophenyl)-2-(4-nitrophenyl)-2H-5-tetrazolio]-1,3-benzene disulfonate) is a water-soluble tetrazolium salt whose cleavage by cellular enzymes correlates with cell viability. Cells were seeded in 96-well plates and treated as indicated. Than 10 μl/well of premixed WST-1 Cell Proliferation Reagent was added, and the cells were incubated for an additional 4 hr under the same conditions. Absorbance at 450 nm was measured on a multi-well plate reader (Bio-Tek).

nuclear MEF2 = assay: MEF2 luciferase reporter assay; type: cell-based; settings: co-transfected with MEF2 luciferase reporter
Description: (§4) Control indicates the group co-tranfected with control vector.
MEF2 luciferase reporter assay was done as described Wang et al., J Biol Chem, 2005, 280:16705-16713. Briefly, cells were transiently transfected with various constructs with MEF2 luciferase reporter plasmid (WT, reporter with wild type MEF2 DNA binding sites; mt, reporter with the MEF2 DNA binding sites mutated) using Lipofectimane 2000 (Invitrogen) following procedures provided by the manufacturer. A β-galactosidase expression plasmid was used to determine the efficiency in each transfection. The total amount of DNA for each transfection was kept constant by using control vectors. Cell lysates were analyzed for luciferase and β-galactosidase activity according to the manufacturer's instructions (Roche, cat. no. 11669893001).

mitochondrial complex I = assay: Mitochondrial complex protein level and activity (BN-PAGE, in-gel staining, quantitative assays); type: cell-based, mouse; settings: over-expression in SN4741 cells
Description: (§5) (A) Requirement of mitochondrial MEF2D for complex I activity. […] Control indicates the control vector group. (B) Over-expression of ND6 rescued complex I activity reduced by Mt2Ddn. Control indicates the control vector group. (C) Measurement of various complex activities. […] Control indicates the control vector group. (D) Effects of over-expression of Mt2D or Mt2Ddn on mitochondrial function. Mt2Ddn reduced cellular ATP level and elevated H2O2 production in SN4741 cells (n=4; *p<0.05; **P<0.01). Control indicates the control vector group.
(§6) Mitochondrial complex I activity was evaluated initially by blue native-polyacrylamide gel electrophoresis (BN-PAGE) and in-gel activity staining. This assay measures total complex I activity. Rotenone sensitive complex I activity and activities of other mitochondrial complexes were further measured by methods described by Antoni et al., J Biol Chem, 1998, 273:14210-14217. Briefly, parallel assays were performed to measure complex I activity at 340 nm using 2,3-dimethoxy-5-methyl-6-n-decyl-1,4-benzoquinone (DB) (50 μM) as acceptor and NADH (0.8 mM) as donor, in 50 mM Tris (pH 8.0) buffer supplemented with 5 mg/ml BSA either without or with the addition of 4 μM rotenone, which gave total and rotenone insensitive complex I activities, respectively. The difference in value between the two provided a quantified measure of the rotenone-sensitive activity. Mitochondrial membrane potential was detected using a kit (cat. no. 280002) from Stratagene following the procedures provided by the manufacturer. The fluorescent dye JC-1 (5,5′,6,6′-tetrachloro-1,1′,3,3′-tetraethylbenzimidazolyl carbocyanine iodide) stains mitochondria red in a membrane potential dependent manner. Briefly, cells were seeded in 96-well plates at 4×10^4 cells/well with 100 μl culture medium and incubated at 33° C. with 5% CO2. After treatment, 10 μl/well of premixed JC-1 staining solution was added, and the cells were incubated for an additional 30 min under the same conditions. After thorough washes, 100 μl assay buffer was added to each well. Fluorescence signal was detected with excitation and emission at 520 nm and 590 nm, respectively, on a multi-well plate reader (Bio-Tek). Cellular ATP and H202 were measured by Bioluminescent Somatic Cell ATP Assay Kit (Sigma) and Hydrogen Peroxide Assay Kit (Cayman), respectively.

SN4741 cells [3] = assay: Subcellular localization of over-expressed MEF2D constructs; type: cell-based, mouse; settings: over-expressed in SN4741 cells
Description: (A) Lack of mitochondrial localization by ΔN30MEF2D. […] VDAC, PARP and c-Raf are Mt, Nu and Cy markers, respectively. Control indicates the control vector group. (B) Immunocytochemistry analysis of mitochondrial localization of transfected Flag-MEF2D. […] Experiments were repeated four times. (C, D) Requirement of mtHsp70 for mitochondria-targeting of MEF2D (n=4; **p<0.01). Control indicates untreated. […]. Knocking down mouse mtHsp70 by siRNA reduced MEF2D level in purified mitochondria from SN4741 cells (C). […] MnSOD is a known mtHsp70-imported mitochondrial matrix protein.
as §3, §4
SN4741 cells or primary midbrain DA neurons were plated on glass slides in 24-well plates. Localizations of endogenous and exogenous MEF2D were visualized on a Zeiss LSM5 PASCAL confocal microscope. […] Quantification of colocalization of signals was done using “Colocalization Analysis” program of software Image Pro (Media Cybernetics). […]

[4] = test system: human mtDNA fragment containing mitochondrial L-strand promoter (LSP) and ND6 gene; assay: In vitro mtDNA L-strand transcription assay; type: biochemical
Description: as §1

SN4741 cells [5] = assay: Mitochondrial functional assays (ATP, H2O2, membrane potential); type: cell-based, mouse; settings: over-expression in SN4741 cells
Description: as §5, §6

[6] = construct over-expressed in SN4741 cells

Molecule	mRNA level of ND6 (ND6 mRNA)	colocalization of MEF2D and MitoTracker signals (SN4741 cells [1])	level of ND6 protein (MEF2D and ND6 proteins)	level of mitochondrial MEF2D protein (MEF2D and ND6 proteins)	level of MEF2D in the nucleus (MEF2D and ND6 proteins)	level of MEF2D in whole cell (MEF2D and ND6 proteins)	binding of mitochondrial MEF2D to the ND6 MEF2 site (MEF2D binding to ND6)	neuronal viability (SN4741 cells [2])	nuclear MEF2 activity (MEF2 reporter) (nuclear MEF2)	mitochondrial complex I activity (mitochondrial complex I)	ND6 protein level / expression (MEF2D and ND6 proteins; [6])	mitochondrial localization by immunocytochemical staining (MitoTracker) (SN4741 cells [3])	level of L-strand promoter (LSP) transcripts [4]	binding of full length MEF2D to the ND6 MEF2 site (MEF2D binding to ND6; [6])	cellular ATP level (SN4741 cells [5])	hydrogen peroxide production by mitochondria (SN4741 cells [5])	mitochondrial membrane potential (SN4741 cells [5]; JC-1)
C[n+]1ccc(-c2ccccc2)cc1 [MPP+, 1-methyl-4-phenylpyridinium]	greatly reduced	preferentially reduced	decrease	decrease	not affected	not affected	greatly reduced	loss of neuronal viability in a dose dependent manner	–	–	–	–	–	–	–	–	–
C=C(C)[C@H]1Cc2c(ccc3c2O[C@@H]2COc4cc(OC)c(OC)cc4[C@@H]2C3=O)O1 [rotenone]	greatly reduced	preferentially reduced	decrease	decrease	not affected	not affected	greatly reduced	–	–	–	–	–	–	–	–	–	–
MEF2D1-131: dominant-negative form of MEF2D which interferes with nuclear MEF2 function (protein, UniProt Q63943 1-131, looked up, fragment) MGRKKIQIQRITDERNRQVTFTKRKFGLMKKAYELSVLCDCEIALIIFNHSNKLFQYASTDMDKVLLKYTEYNEPHESRTNADIIETLRKKGFNGCDSPEPDGEDSLEQSPLLEDKYRRASEELDGLFRRY	–	–	–	–	–	–	–	–	interferes with nuclear MEF2 function	–	–	–	–	–	–	–	–
Mt2D: Mitochondria-targeting active MEF2D: mouse MEF2D 1-493aa with added mitochondria-targeting signal, lacking nuclear localization signals (protein, UniProt Q63943 1-493, looked up, fragment, mitochondria-targeting signal added) MGRKKIQIQRITDERNRQVTFTKRKFGLMKKAYELSVLCDCEIALIIFNHSNKLFQYASTDMDKVLLKYTEYNEPHESRTNADIIETLRKKGFNGCDSPEPDGEDSLEQSPLLEDKYRRASEELDGLFRRYGSSVPAPNFAMPVTVPVSNQSSMQFSNPSSSLVTPSLVTSSLTDPRLLSPQQPALQRNSVSPGLPQRPASAGAMLGGDLNSANGACPSPVGNGYVSARASPGLLPVANGNSLNKVIPAKSPPPPTHNTQLGAPSRKPDLRVITSQGGKGLMHHLTEDHLDLNNAQRLGVSQSTHSLTTPVVSVATPSLLSQGLPFSSMPTAYNTDYQLPSAELSSLPAFSSPAGLALGNVTAWQQPQPPQQPQPPQPPQSQPQPPQPQPQQPPQQQPHLVPVSLSNLIPGSPLPHVGAALTVTTHPHISIKSEPVSPSRERSPAPPPPAVFPAARPEPGEGLSSPAGGSYETGDRDDGRGDFGPTLGLLRPA	–	–	–	–	–	–	–	–	did not affect	neither increased the protein level nor the activity	did not significantly change	targeted exclusively to mitochondria	increases	modulated	did not alter	did not alter	did not alter

— US20120149645A1, “COMPOSITIONS AND MODULATION OF MYOCYTE ENHANCER FACTOR 2 (MEF2)” (EMORY UNIVERSITY, priority 2010, published 2012)
